# In US20220332708A1 (Cytokinetics, Inc., priority 2021, published 2022):
# Tested on: Bovine cardiac myofibrils
# Assay: Dose-dependent myofibril ATPase modulation (calcium-buffered, pyruvate kinase and lactate dehydrogenase-coupled ATPase assay at pCa25)
# Format: biochemical
# Settings: concentration at which ATPase activity was 1.4-fold higher than the bottom of the dose curve, mean of a minimum of two independent tests
# How it was run: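 Detergent-skinned bovine cardiac myofibrils (typically 0.25-1.0 mg/ml) in a pyruvate kinase/lactate dehydrogenase-coupled ATPase assay, 1 mM ATP, pH 6.80, free Ca2+ set by EGTA buffer to pCa25. ATP hydrolysis followed by A340; 4-parameter fit, AC1.4 as mean of at least two independent tests.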
row,AC1.4 [µM],SMILES
1,0.3162,"Cc1[nH]c(S(=O)(=O)N[C@@H]2COc3cc(F)c(F)cc3C2)cc1C(=O)N1CC(C)(C#N)C1 [Compound 70, (S)-4-(3-cyano-3-methylazetidine-1-carbonyl)-N-(6,7-difluorochroman-3-yl)-5-methyl-1H-pyrrole-2-sulfonamide]"
2,0.3054,"Cc1[nH]c(S(=O)(=O)N[C@@H]2COc3ccc(Cl)cc3C2)cc1C(=O)N1CC(C)(C#N)C1 [Compound 71, (S)-N-(6-chlorochroman-3-yl)-4-(3-cyano-3-methylazetidine-1-carbonyl)-5-methyl-1H-pyrrole-2-sulfonamide]"
3,0.4237,"Cc1[nH]c(S(=O)(=O)N[C@@H]2COc3cc(Cl)ccc3C2)cc1C(=O)N1CC(C)(C#N)C1 [Compound 72, (S)-N-(7-chlorochroman-3-yl)-4-(3-cyano-3-methylazetidine-1-carbonyl)-5-methyl-1H-pyrrole-2-sulfonamide]"
4,0.0793,"Cc1[nH]c(S(=O)(=O)N[C@@H]2COc3cc(F)c(Cl)cc3C2)cc1C(=O)N1CC(C)(C#N)C1 [Compound 73, (S)-N-(6-chloro-7-fluorochroman-3-yl)-4-(3-cyano-3-methylazetidine-1-carbonyl)-5-methyl-1H-pyrrole-2-sulfonamide]"
5,0.5684,"Cc1[nH]c(S(=O)(=O)N[C@@H]2COc3ccc(Cl)cc3[C@@H]2O)cc1C(=O)N1CC(C#N)C1 [Compound 74, N-((3R,4S)-6-chloro-4-hydroxychroman-3-yl)-4-(3-cyanoazetidine-1-carbonyl)-5-methyl-1H-pyrrole-2-sulfonamide]"
6,0.5877,"Cc1[nH]c(S(=O)(=O)N[C@H]2COc3ccc(Cl)cc3[C@@H]2O)cc1C(=O)N1CC(C)(C#N)C1 [Compound 75, N-((3S,4S)-6-chloro-4-hydroxychroman-3-yl)-4-(3-cyano-3-methylazetidine-1-carbonyl)-5-methyl-1H-pyrrole-2-sulfonamide]"
7,0.1896,"Cc1[nH]c(S(=O)(=O)N[C@@H]2COc3cc(F)c(Cl)cc3[C@H]2O)cc1C(=O)N1CC(C)(C#N)C1 [Compound 77, N-((3R,4R)-6-chloro-7-fluoro-4-hydroxychroman-3-yl)-4-(3-cyano-3-methylazetidine-1-carbonyl)-5-methyl-1H-pyrrole-2-sulfonamide]"
8,0.1127,"Cc1[nH]c(S(=O)(=O)N[C@@H]2COc3cc(F)c(Cl)cc3[C@@H]2O)cc1C(=O)N1CC(C)(C#N)C1 [Compound 78, N-((3R,4S)-6-chloro-7-fluoro-4-hydroxychroman-3-yl)-4-(3-cyano-3-methylazetidine-1-carbonyl)-5-methyl-1H-pyrrole-2-sulfonamide]"
9,0.0599,"Cc1[nH]c(S(=O)(=O)NC2Cc3cc(Cl)c(Cl)cc3C2)cc1C(=O)N1CC(C)(C#N)C1 [Compound 79, 4-(3-cyano-3-methylazetidine-1-carbonyl)-N-(5,6-dichloro-2,3-dihydro-1H-inden-2-yl)-5-methyl-1H-pyrrole-2-sulfonamide]"
10,13.1993,"Cc1[nH]c(S(=O)(=O)N[C@H]2COc3cc(F)c(Cl)cc3C2)cc1C(=O)N1CC(C)(C#N)C1 [Compound 80, (R)-N-(6-chloro-7-fluorochroman-3-yl)-4-(3-cyano-3-methylazetidine-1-carbonyl)-5-methyl-1H-pyrrole-2-sulfonamide]"
11,1.194,"Cc1[nH]c(S(=O)(=O)NC23COc4cc(F)c(Cl)cc4C2C3)cc1C(=O)N1CC(C#N)C1 (centres unmarked) [Compound 81, N-(6-chloro-5-fluoro-1,7b-dihydrocyclopropa[c]chromen-1a(2H)-yl)-4-(3-cyanoazetidine-1-carbonyl)-5-methyl-1H-pyrrole-2-sulfonamide]"
12,0.6173,"Cc1[nH]c(S(=O)(=O)N[C@@H]2Cc3cc(Cl)c(Cl)cc3[C@@]2(C)O)cc1C(=O)N1CC(C)(C#N)C1 [Compound 82, 4-(3-cyano-3-methylazetidine-1-carbonyl)-N-((1R,2R)-5,6-dichloro-1-hydroxy-1-methyl-2,3-dihydro-1H-inden-2-yl)-5-methyl-1H-pyrrole-2-sulfonamide]"
13,1.3618,"Cc1cc(S(=O)(=O)N[C@@H]2COc3cc(F)c(Cl)cc3[C@@H]2O)cc(N2CC(C#N)C2)n1 [Compound 85, N-((3R,4S)-6-chloro-7-fluoro-4-hydroxychroman-3-yl)-2-(3-cyanoazetidin-1-yl)-6-methylpyridine-4-sulfonamide]"
14,13.53,"Cc1cc(S(=O)(=O)N[C@@H]2COc3cc(F)c(Cl)cc3[C@@H]2O)cc(N2CC(O)C2)n1 [Compound 86, N-((3R,4S)-6-chloro-7-fluoro-4-hydroxychroman-3-yl)-2-(3-hydroxyazetidin-1-yl)-6-methylpyridine-4-sulfonamide]"
15,3.783,"Cc1cc(S(=O)(=O)N[C@@H]2COc3cc(F)c(Cl)cc3[C@@H]2O)cc(N2CC(C)(C)C2)n1 [Compound 87, N-((3R,4S)-6-chloro-7-fluoro-4-hydroxychroman-3-yl)-2-(3,3-dimethylazetidin-1-yl)-6-methylpyridine-4-sulfonamide]"
16,2.209,"Cc1cc(S(=O)(=O)N[C@@H]2COc3cc(F)c(Cl)cc3[C@@H]2O)cc(N2CC(OC(F)F)C2)n1 [Compound 88, N-((3R,4S)-6-chloro-7-fluoro-4-hydroxychroman-3-yl)-2-(3-(difluoromethoxy)azetidin-1-yl)-6-methylpyridine-4-sulfonamide]"
17,0.2521,Cc1[nH]c(S(=O)(=O)N[C@@H]2Cc3cc(F)c(Cl)cc3[C@H]2O)cc1C(=O)N1CC(C)(C#N)C1 [Compound 89]
18,5.312,Cc1cc(S(=O)(=O)N[C@@H]2COc3cc(F)c(Cl)cc3[C@@H]2O)cc(N2CC(C(F)F)C2)n1 [Compound 90]
19,1.417,"Cc1cc(S(=O)(=O)N[C@@H]2COc3cc(F)c(Cl)cc3[C@@H]2O)cc(N2CC[C@@H](C#N)C2)n1 [Compound 91, N-((3R,4S)-6-chloro-7-fluoro-4-hydroxychroman-3-yl)-2-((R)-3-cyanopyrrolidin-1-yl)-6-methylpyridine-4-sulfonamide]"
20,0.1626,"Cc1[nH]c(S(=O)(=O)N[C@@H]2Cc3cc(F)c(Cl)cc3C2)cc1C(=O)N1CC(C(F)(F)F)C1 [Compound 93, (R)-N-(5-chloro-6-fluoro-2,3-dihydro-1H-inden-2-yl)-5-methyl-4-(3-(trifluoromethyl)azetidine-1-carbonyl)-1H-pyrrole-2-sulfonamide]"
21,0.6847,"Cc1[nH]c(S(=O)(=O)N[C@@H]2Cc3cc(F)c(Cl)cc3C2)cc1C(=O)N1CC(OC(F)(F)F)C1 [Compound 94, (R)-N-(5-chloro-6-fluoro-2,3-dihydro-1H-inden-2-yl)-5-methyl-4-(3-(trifluoromethoxy)azetidine-1-carbonyl)-1H-pyrrole-2-sulfonamide]"
22,0.9577,"Cc1[nH]c(S(=O)(=O)N[C@@H]2Cc3cc(F)c(Cl)cc3C2)cc1C(=O)N1CC(C)(O)C1 [Compound 95, (R)-N-(5-chloro-6-fluoro-2,3-dihydro-1H-inden-2-yl)-4-(3-hydroxy-3-methylazetidine-1-carbonyl)-5-methyl-1H-pyrrole-2-sulfonamide]"
23,1.218,"Cc1[nH]c(S(=O)(=O)N[C@@H]2Cc3cc(F)c(Cl)cc3C2)cc1C(=O)N1CC2(COC2)C1 [Compound 96, (R)-N-(5-chloro-6-fluoro-2,3-dihydro-1H-inden-2-yl)-5-methyl-4-(2-oxa-6-azaspiro[3.3]heptane-6-carbonyl)-1H-pyrrole-2-sulfonamide]"
24,0.2269,"Cc1[nH]c(S(=O)(=O)N[C@@H]2Cc3cc(F)c(Cl)cc3C2)cc1C(=O)N1CC2(C1)CC(F)(F)C2 [Compound 97, (R)-N-(5-chloro-6-fluoro-2,3-dihydro-1H-inden-2-yl)-4-(6,6-difluoro-2-azaspiro[3.3]heptane-2-carbonyl)-5-methyl-1H-pyrrole-2-sulfonamide]"
25,0.6667,"[2H]C([2H])([2H])c1[nH]c(S(=O)(=O)N[C@@H]2Cc3cc(F)c(Cl)cc3C2)cc1C(=O)N1CC(OC(F)(F)F)C1 [Compound 98, (R)-N-(5-chloro-6-fluoro-2,3-dihydro-1H-inden-2-yl)-5-(methyl-d3)-4-(3-(trifluoromethoxy)azetidine-l-carbonyl)-1H-pyrrole-2-sulfonamide]"
26,5.571,"CNc1cc2c(cc1S(=O)(=O)N[C@H]1C[C@H](Nc3ccccc3)C1)c(=O)[nH]c(=O)n2C [Compound 100, 1-Methyl-7-(methylamino)-2,4-dioxo-N-((1r,3r)-3-(phenylamino)cyclobutyl)-1,2,3,4-tetrahydroquinazoline-6-sulfonamide]"
